Earlier results, collected in patent US20240360061A1, “Synthetic Cannabinoid Compounds, Pharmaceutical Compositions, and Treatment Methods” (Miralogx LLC, priority 2022, published 2024).

Legend:
[1] = Type-2 diabetes; cited from J. Cannabis Research (2020) 2:6
[2] = several clinical studies
[3] = 2.5 to 5 mg THC, three patients
[4] = oral THC 15 mg; compared with salbutamol, isoprenaline

CCCc1cc(O)c2c(c1)OC(C)(C)[C@@H]1CCC(C)=C[C@@H]21 [THCV, Δ9-Tetrahydrocannabivarin]
Homeostasis Model Assessment (HOMA2) of pancreatic β-cell function [1]: improve | fasting plasma glucose [1]: significantly decrease

CCCCCc1cc(O)c2c(c1)OC(C)(C)[C@@H]1CCC(C)=C[C@@H]21 [THC, tetrahydrocannabinol]
mood in reactive depression [2]: improvement of mood | effect on pruritus due to liver diseases [3]: effective | anti-asthmatic (bronchodilator) effect [4]: approximately correspond to those obtained with therapeutic doses of common bronchodilator drugs
